Assays:
human cathepsin K = human cathepsin K (UniProt P43236); assay: Cathepsin K Assay (hrbCat K); type: biochemical; conditions: Z-Leu-Arg-AMC substrate, pH 5.5, 15 min preincubation; read-out: hrbCat K (IP (nM))
Method in brief: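 Human cathepsin K (0.4 nM) was preincubated 15 min at room temperature with compound in 50 mM MES pH 5.5, 2.5 mM EDTA, 2.5 mM DTT and 10% DMSO. Inhibition was fitted to a dose-response model.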

human cathepsin F = molecular target: T1, human cathepsin F (Homo sapiens, UniProt Q9UBX1); assay: Cathepsin F assay (hCat F); type: biochemical; conditions: Z-Phe-Arg-AMC substrate, pH 5.5, 15 min preincubation; read-out: hCat F (IP (nM))
T1 sequence (Q9UBX1 271-484): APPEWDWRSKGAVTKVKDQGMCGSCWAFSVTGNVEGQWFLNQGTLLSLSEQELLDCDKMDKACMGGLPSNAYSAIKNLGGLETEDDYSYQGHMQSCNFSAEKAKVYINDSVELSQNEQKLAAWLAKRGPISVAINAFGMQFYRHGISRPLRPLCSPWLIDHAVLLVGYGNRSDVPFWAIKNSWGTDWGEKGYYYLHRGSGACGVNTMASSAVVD
Method in brief: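 AMC release from Z-Phe-Arg-AMC, added at 8 μM, was monitored fluorometrically (360/460 nm) for 20 min after 10 nM enzyme and compound had been preincubated 15 min at room temperature. Buffer: MES 50 mM pH 5.5, EDTA and DTT 2.5 mM each, 10% DMSO. Compound DMSO dilutions spanned 500–0.025 μM (3-fold). Dose-response fitting gave % inhibition.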

Structure (SMILES)	IC50 (human cathepsin K) [nM]	IC50 (human cathepsin F) [nM]
N#CC1(NC(=O)[C@@H]2CCCC[C@H]2c2nc(NS(=O)(=O)c3ccccc3)sc2-c2ccc(N3CCS(=O)(=O)CC3)cc2)CC1 [Example 200, (1R,2R)-N-(1-cyanocyclopropyl)-2-(5-(4-(1,1-dioxidothiomorpho-lino)phenyl)-2-(phenylsulfonamido)thiazol-4-yl)cyclohexane-carboxamide]	116	≥ 10000
CN(c1nc([C@@H]2CCCC[C@H]2C(=O)NC2(C#N)CC2)c(-c2ccc(N3CCS(=O)(=O)CC3)cc2)s1)S(=O)(=O)c1ccccc1 [Example 201, (1R,2R)-N-(1-cyanocyclopropyl)-2-(5-(4-(1,1-dioxidothiomorpho-lino)phenyl)-2-(N-methylphenylsulfon-amido)thiazol-4-yl)cyclohexane-carboxamide]	1.2	712
N#CC1(NC(=O)[C@@H]2CCC(Cl)(Cl)C[C@H]2c2nc(-c3ccc(F)cn3)sc2-c2ccc(N3CCS(=O)(=O)CC3)cc2)CC1 [Example 204, (1R,2R)-4,4-dichloro-N-(1-cyanocyclopropyl)-2-(5-(4-(1,1-dioxidothiomorpho-lino)phenyl)-2-(5-fluoropyridin-2-yl)thiazol-4-yl)cyclohexane-carboxamide]	88.2	3330
Cc1nc([C@@H]2CC[C@H](F)C[C@H]2C(=O)NC2(C#N)CC2)c(-c2ccc(N3CCS(=O)(=O)CC3)cc2)s1 [Example 205, (1R,2R,5S)-N-(1-cyanocyclopropyl)-2-(5-(4-(1,1-dioxidothiomorpho-lino)phenyl)-2-methylthiazol-4-yl)-5-fluorocyclohexane-carboxamide]	6.4	≥ 10000
Cc1nc([C@@H]2CC[C@H](F)C[C@H]2C(=O)N[C@@H](C)C#N)c(-c2ccc(N3CCS(=O)(=O)CC3)cc2)s1 [Example 206, (1R,2R,5S)-N-((S)-1-cyanoethyl)-2-(5-(4-(1,1-dioxidothiomorpho-lino)phenyl)-2-methylthiazol-4-yl)-5-fluorocyclohexane-carboxamide]	5	9010
C[C@@H](C#N)NC(=O)[C@@H]1C[C@@H](F)CC[C@H]1c1nc(C(C)(C)C)sc1-c1ccc(N2CCS(=O)(=O)CC2)cc1 [Example 207, (1R,2R,5S)-2-(2-(tert-butyl)-5-(4-(1,1-dioxidothiomorpho-lino)phenyl)thiazol-4-yl)-N-((S)-1-cyanoethyl)-5-fluorocyclohexane-carboxamide]	1.6	2570
CC(C)(O)c1nc([C@@H]2CCCC[C@H]2C(=O)NC2(C#N)CC2)c(-c2ccc(N3CCS(=O)(=O)CC3)cc2)s1 [Example 208, (1R,2R)-N-(1-cyanocyclopropyl)-2-(5-(4-(1,1-dioxidothiomorpho-lino)phenyl)-2-(2-hydroxypropan-2-yl)thiazol-4-yl)cyclohexane-carboxamide]	7.9	≥ 10000
CC(C)[C@@H](C#N)NC(=O)[C@@H]1C[C@@H](F)CC[C@H]1c1nc(-c2cncc(F)c2)sc1-c1ccc(N2CCS(=O)(=O)CC2)cc1 [Example 209, (1R,2R,5S)-N-((S)-1-cyano-2-methylpropyl)-2-(5-(4-(1,1-dioxidothiomorpho-lino)phenyl)-2-(5-fluoropyridin-3-yl)thiazol-4-yl)-5-fluorocyclohexane-carboxamide]	1.5	1000
Cc1nc([C@@H]2CC[C@H](F)C[C@H]2C(=O)N[C@H](C#N)C(C)C)c(-c2ccc(N3CCS(=O)(=O)CC3)cc2)s1 [Example 210, (1R,2R,5S)-N-((S)-1-cyano-2-methylpropyl)-2-(5-(4-(1,1-dioxidothiomorpho-lino)phenyl)-2-methylthiazol-4-yl)-5-fluorocyclohexane-carboxamide]	11.4	9900
N#CC1(NC(=O)[C@@H]2CCCC[C@H]2c2nc(-c3ccc(F)cn3)sc2-c2ccc(N3CCS(=O)(=O)CC3)cc2)COC1 [Example 211, (1R,2R)-N-(3-cyanooxetan-3-yl)-2-(5-(4-(1,1-dioxidothiomorpho-lino)phenyl)-2-(5-fluoropyridin-2-yl)thiazol-4-yl)cyclohexane-carboxamide]	1.7	289
C[C@@H](C#N)NC(=O)[C@@H]1C[C@@H](F)CC[C@H]1c1nc(C2CC(F)(F)C2)sc1-c1ccc(N2CCS(=O)(=O)CC2)cc1 [Example 212, (1R,2R,5S)-N-((S)-1-cyanoethyl)-2-(2-(3,3-difluorocyclobutyl)-5-(4-(1,1-dioxidothiomorpho-lino)phenyl)thiazol-4-yl)-5-fluorocyclohexane-carboxamide]	4.2	6700
CC(C)[C@@H](C#N)NC(=O)[C@@H]1C[C@@H](F)CC[C@H]1c1nc(C2CC(F)(F)C2)sc1-c1ccc(N2CCS(=O)(=O)CC2)cc1 [Example 213]	7.8	≥ 10000
Cc1ccc(-c2nc([C@@H]3CC[C@H](F)C[C@H]3C(=O)NC3(C#N)CC3)c(-c3ccc(N4CCOCC4)cc3)s2)nn1 [Example 216, (1R,2R,5S)-N-(1-cyanocyclopropyl)-5-fluoro-2-(2-(6-methylpyridazin-3-yl)-5-(4-morpholinophenyl)thiazol-4-yl)cyclohexane-carboxamide]	7.1	2480
Cc1ccc(-c2nc([C@@H]3CC[C@H](F)C[C@H]3C(=O)N[C@H](C#N)C(C)C)c(-c3ccc(N4CCS(=O)(=O)CC4)cc3)s2)nn1 [Example 217, (1R,2R,5S)-N-((S)-1-cyano-2-methylpropyl)-2-(5-(4-(1,1-dioxidothiomorpho-lino)phenyl)-2-(6-methylpyridazin-3-yl)thiazol-4-yl)-5-fluorocyclohexane-carboxamide]	1.5	2930
C[C@@H](C#N)NC(=O)[C@@H]1C[C@@H](F)CC[C@H]1c1nc(C(F)F)sc1-c1ccc(N2CCS(=O)(=O)CC2)cc1 [Example 220, (1R,2R,5S)-N-((S)-1-cyanoethyl)-2-(2-(difluoromethyl)-5-(4-(1,1-dioxidothiomorpho-lino)phenyl)thiazol-4-yl)-5-fluorocyclohexane-carboxamide]	1.6	2090
Cc1ccc(-c2nc([C@@H]3CC[C@H](F)C[C@H]3C(=O)NC3(C#N)CC3)c(-c3ccc(N4CCC(C)(O)CC4)cc3)s2)nn1 [Example 222, (1R,2R,5S)-N-(1-cyanocyclopropyl)-5-fluoro-2-(5-(4-(4-hydroxy-4-methylpiperidin-1-yl)phenyl)-2-(6-methylpyridazin-3-yl)thiazol-4-yl)cyclohexane-carboxamide]	6.2	2050
Cc1ccc(-c2nc([C@@H]3CC[C@H](F)C[C@H]3C(=O)NC3(C#N)CC3)c(-c3ccc(N4CCC(S(C)(=O)=O)CC4)cc3)s2)nn1 [Example 223, (1R,2R,5S)-N-(1-cyanocyclopropyl)-5-fluoro-2-(2-(6-methylpyridazin-3-yl)-5-(4-(4-(methylsulfonyl)piperidin-1-yl)phenyl)thiazol-4-yl)cyclohexane-carboxamide]	2.9	2230
CC(C)(CO)c1nc([C@@H]2CCCC[C@H]2C(=O)NC2(C#N)CC2)c(-c2ccc(N3CCS(=O)(=O)CC3)cc2)s1 [Example 224, (1R,2R)-N-(1-cyanocyclopropyl)-2-(5-(4-(1,1-dioxidothiomorpho-lino)phenyl)-2-(1-hydroxy-2-methylpropan-2-yl)thiazol-4-yl)cyclohexane-carboxamide]	3.3	≥ 10000
C[C@@H](C#N)NC(=O)[C@@H]1CCCC[C@H]1c1nc(C(C)(C)CO)sc1-c1ccc(N2CCS(=O)(=O)CC2)cc1 [Example 225, (1R,2R)-N-((S)-1-cyanoethyl)-2-(5-(4-(1,1-dioxidothiomorpho-lino)phenyl)-2-(1-hydroxy-2-methylpropan-2-yl)thiazol-4-yl)cyclohexane-carboxamide]	1.6	1040
Cc1nc([C@@H]2CC[C@H](F)C[C@H]2C(=O)N[C@@H](C)C#N)c(-c2ccc(N3CCOCC3)cc2)s1 [Example 230, (1R,2R,5S)-N-((S)-1-cyanoethyl)-5-fluoro-2-(2-methyl-5-(4-morpholinophenyl)thiazol-4-yl)cyclohexane-carboxamide]	45.5	3330
C[C@@H](C#N)NC(=O)[C@@H]1C[C@@H](F)CC[C@H]1c1nc(C2(C(F)(F)F)CC2)sc1-c1ccc(N2CCS(=O)(=O)CC2)cc1 [Example 231, (1R,2R,5S)-N-((S)-1-cyanoethyl)-2-(5-(4-(1,1-dioxidothiomorpho-lino)phenyl)-2-(1-(trifluoromethyl)cyclopropyl)thiazol-4-yl)-5-fluorocyclohexane-carboxamide]	2.8	3140
N#CC1(NC(=O)[C@@H]2C[C@@H](F)CC[C@H]2c2nc(C3(C(F)(F)F)CC3)sc2-c2ccc(N3CCS(=O)(=O)CC3)cc2)CC1 [Example 232, (1R,2R,5S)-N-(1-cyanocyclopropyl)-2-(5-(4-(1,1-dioxidothiomorpho-lino)phenyl)-2-(1-(trifluoromethyl)cyclopropyl)thiazol-4-yl)-5-fluorocyclohexane-carboxamide]	5	≥ 10000
